The record followed here is US11286304B2, “Anti-galectin-7 antibody, kit comprising the same, and uses thereof” (Academia Sinica, priority 2018, dated 2022).

For test [1], the system named is galectin-7. Description: Galectin-7 expression in keratinocytes (real-time PCR, immunoblot). The note with it: keratinocytes, other statin drugs, data not shown. The class given is cell-based, human. The protocol:
Human keratinocyte cell line HaCaT was maintained at 37° C. in Dulbecco's modified Eagle's medium (DMEM) supplemented with 10% of fetal bovine serum (FBS), 2 mM glutamine, 100 U/ml penicillin and 100 μg/ml streptomycin. Short hairpin RNA (shRNA) reagents were obtained from the National RNAi Core Facility located at the Institute of Molecular Biology and Genomic Research Center, Academia Sinica, supported by the National Core Facility Program for Biotechnology Grants of NSC. Four shRNAs with clone IDs of TRCN0000057393, TRCN0000057394, TRCN0000057395, and TRCN0000057396 were used to generate stable galectin-7 knockdown HaCaT clones. HaCaT cells were infected with one of the four shRNA-expressing lentiviruses and puromycin was employed to select stable cell clones after 3 days of infection. After puromycin selection, four individual pooled clones were cultured in puromycin-free medium for 2 weeks before further analysis.
Primary neonatal human epithelial keratinocytes, HEKn cells, were purchased from Gibco. HEKn cells were cultured at 37° C. in keratinocyte serum-free medium (K-SFM) supplemented with 30 μg/ml bovine pituitary extract and 5 ng/ml recombinant human epidermal growth factor from the same company. Compared with HaCaT cells, HEKn cells have a limited proliferation ability and are not suitable for establishing shRNA-based stable knockdown cells; therefore, a small interfering RNA (siRNA) oligo was used to transiently knock down the expression of galectin-7. The Silencer® Select siRNAs were purchased from Invitrogen, including negative control #1 and a predesigned siRNA targeting human galectin-7 (Catalog number: s230574, which targets the sequence of exon 3 of NM_002307.3). Thirty picomoles of siRNAs were delivered into HEKn cells in a 6-well plate setup by means of Lipofectamine 2000.
Cells were harvested and lysed in RIPA lysis buffer containing 1% of Triton X-100 and a protease inhibitor cocktail, and total protein concentrations were measured with a protein assay kit. Proteins in the samples of the lysates with the same amounts of total protein were separated by sodium dodecyl sulfate polyacrylamide gel electrophoresis (SDS-PAGE) and analyzed by immunoblotting. Primary antibodies against phospho-Erk1 (pT202)/Erk2 (pT185), Erk1, Erk2, NF-κB p65, phospho-NF-κB p65 (pS536), IκBα, phospho-IκBα pS32, β-actin, or GAPDH were applied to detect the corresponding proteins. Horseradish peroxidase (HRP)-conjugated secondary antibodies against mouse, rabbit, or goat IgG were then incubated with the membranes, and proteins were visualized by chemiluminescence according to the manufacturer's instructions. Protein quantification was performed by software.
Total RNAs (including mRNA and miRNA) were extracted from cultured cells or mouse ears with the TRIzol Reagent. For measurement of human galectin-7, IL-6, IL-8, IL-17A, and IFN-γ levels, mRNAs were reverse-transcribed into cDNA by means of the cDNA synthesis kit, and real-time PCR was carried out with specific probes accompanied with primers targeting humangalectin-7, IL-6, and IL-8 according to the manufacturer's instructions.
(Real-time PCR tracks product formation cycle by cycle.)

The subject of test [2] is galectin-7. The test is described as follows: Galectin-7 levels in lung cancer tumors transplanted in NOD SCID mice (IHC, immunoblot). It is filed as in vivo. The note with it: NOD SCID mice with A549, PC9, PC9-IR cells, 30 mg/kg daily oral gavage, day 21, vs saline. The protocol: NOD.CB17-Prkdcscid/JNarl mice obtained from National Laboratory Animal Center (Taiwan) were engrafted 2×10^6 lung cancer cells subcutaneously at the left and right flanks of the mice. After 10 days of tumor growth, mice were treated by oral gavage with 30 mg/kg fluvastatin or lovastatin in saline solution, or saline solution alone as control, once per day for 21 days. The tumor plaques were harvested and each of them was cut into two pieces. One piece was for immunoblot analysis, and the other one was fixed with 10% formalin and embedded into paraffin block for IHC staining. All animal studies were conducted in the experimental animal facilities of Institute of Biomedical Sciences, Academia Sinica, Taipei, Taiwan, in accordance to institutional rules and ethical guidelines for experimental animal care.
A general note: Immunoblotting shows a protein as a band on a membrane.

SMILES strings stand for the structures.

For `CC[C@H](C)C(=O)O[C@H]1C[C@@H](C)C=C2C=C[C@H](C)[C@H](CC[C@@H]3C[C@@H](O)CC(=O)O3)[C@H]21` [lovastatin], the galectin-7 expression entry in the test on galectin-7 [1] is listed as “induced galectin-7 expression”. In the test on galectin-7 [2], the “galectin-7 expression in transplanted tumors” value is “increased”.
